Several values for one entry are separate records, joined by “and”; a condition that tells them apart may be missing. Identical values can stand only once.
Legend:
[1] = target: USP10 (Homo sapiens, UniProt Q14694); assay: biochemical
[2] = target: T1, USP4 (Homo sapiens, UniProt Q13107); assay: Biochemical DUB selectivity profiling assay: USP4; conditions: Ub-Lys-TAMRA 50 nM, buffer A; read-out: Biochemical IC50 range, USP4
T1 sequence (Q13107 1-963): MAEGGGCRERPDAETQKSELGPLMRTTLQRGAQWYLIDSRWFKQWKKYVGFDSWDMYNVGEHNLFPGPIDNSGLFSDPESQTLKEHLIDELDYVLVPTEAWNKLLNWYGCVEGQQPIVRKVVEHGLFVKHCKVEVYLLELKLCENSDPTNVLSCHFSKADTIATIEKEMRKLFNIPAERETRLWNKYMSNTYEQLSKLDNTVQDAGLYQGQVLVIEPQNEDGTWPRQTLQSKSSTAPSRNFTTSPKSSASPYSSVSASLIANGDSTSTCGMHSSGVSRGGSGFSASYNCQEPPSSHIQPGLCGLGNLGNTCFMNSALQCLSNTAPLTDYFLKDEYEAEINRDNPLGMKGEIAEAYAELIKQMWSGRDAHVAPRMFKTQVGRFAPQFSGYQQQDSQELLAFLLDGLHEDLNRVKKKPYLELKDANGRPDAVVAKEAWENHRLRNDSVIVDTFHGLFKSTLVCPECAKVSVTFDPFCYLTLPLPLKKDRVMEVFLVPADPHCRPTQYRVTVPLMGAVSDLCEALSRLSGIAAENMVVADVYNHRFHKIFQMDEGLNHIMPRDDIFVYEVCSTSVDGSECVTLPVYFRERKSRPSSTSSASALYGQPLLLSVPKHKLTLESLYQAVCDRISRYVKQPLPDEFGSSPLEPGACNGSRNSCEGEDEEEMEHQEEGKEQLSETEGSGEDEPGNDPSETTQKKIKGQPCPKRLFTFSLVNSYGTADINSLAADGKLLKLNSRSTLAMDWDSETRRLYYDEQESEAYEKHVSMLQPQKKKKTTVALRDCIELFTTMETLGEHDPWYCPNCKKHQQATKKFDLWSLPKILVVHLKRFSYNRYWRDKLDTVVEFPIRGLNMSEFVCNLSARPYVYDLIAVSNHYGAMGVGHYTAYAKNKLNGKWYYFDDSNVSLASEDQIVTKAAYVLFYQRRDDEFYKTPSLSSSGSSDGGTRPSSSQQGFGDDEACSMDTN
Protocol: DUB Assay Substrate Substrate
Buffer Concentration (nM) […]
Sepharose® 4B resin (GE Healthcare).
10 kDa molecular weight cut-off (MWCO)).
Fractions containing protein
Protein concentration was […]
reaction volume of 21 μL. […]
compound (final concentration 5 nM).
IC50 values were determined
Biochemical DUB selectivity profiling assays […]
in 40 µL total reaction volume.

[3] = target: DUBs and other proteins in HEK293 cells (Homo sapiens, UniProt O00487); assay: In-cell proteome-wide competitive ABPP, HEK293: other DUBs and proteins; conditions: replicates A-C; for Log2 reporter intensity values: PSMD14: DMSO substract (FC); for Log2 reporter intensity values: PSMD14, DMSO subtracted
[4] = target: T2, DUBs and other proteins in HEK293 cells (Homo sapiens, UniProt P51665); assay: as above; conditions: replicates A-C; for Log2 reporter intensity values: PSMD7: DMSO substract (FC); for Log2 reporter intensity values: PSMD7, DMSO subtracted
T2 sequence (P51665 1-324): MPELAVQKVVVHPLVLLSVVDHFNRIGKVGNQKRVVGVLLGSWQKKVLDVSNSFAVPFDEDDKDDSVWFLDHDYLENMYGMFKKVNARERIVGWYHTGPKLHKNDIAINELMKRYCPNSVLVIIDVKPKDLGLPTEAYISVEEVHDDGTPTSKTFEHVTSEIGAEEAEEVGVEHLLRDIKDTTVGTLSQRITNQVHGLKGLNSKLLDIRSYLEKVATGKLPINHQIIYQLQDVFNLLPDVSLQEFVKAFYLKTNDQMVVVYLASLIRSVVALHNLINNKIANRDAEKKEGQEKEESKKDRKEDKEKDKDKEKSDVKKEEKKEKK

[5] = target: DUBs and other proteins in HEK293 cells (Homo sapiens, UniProt Q9UPU5); assay: as above; conditions: replicates A-C; for Log2 reporter intensity values: USP24: DMSO substract (FC); for Log2 reporter intensity values: USP24, DMSO subtracted
[6] = 3 at 1 μM, competition with ABP 2
[7] = 3 at 4 μM, competition with ABP 2
[8] = LDN at 5 μM, competition with ABP 2
[9] = LDN at 25 μM, competition with ABP 2
[10] = 1 at 1 μM, competition with ABP 2
[11] = 1 at 4 μM, competition with ABP 2

Chain of DUBs and other proteins in HEK293 cells (Homo sapiens, UniProt Q9UPU5) (Q9UPU5 whole entry): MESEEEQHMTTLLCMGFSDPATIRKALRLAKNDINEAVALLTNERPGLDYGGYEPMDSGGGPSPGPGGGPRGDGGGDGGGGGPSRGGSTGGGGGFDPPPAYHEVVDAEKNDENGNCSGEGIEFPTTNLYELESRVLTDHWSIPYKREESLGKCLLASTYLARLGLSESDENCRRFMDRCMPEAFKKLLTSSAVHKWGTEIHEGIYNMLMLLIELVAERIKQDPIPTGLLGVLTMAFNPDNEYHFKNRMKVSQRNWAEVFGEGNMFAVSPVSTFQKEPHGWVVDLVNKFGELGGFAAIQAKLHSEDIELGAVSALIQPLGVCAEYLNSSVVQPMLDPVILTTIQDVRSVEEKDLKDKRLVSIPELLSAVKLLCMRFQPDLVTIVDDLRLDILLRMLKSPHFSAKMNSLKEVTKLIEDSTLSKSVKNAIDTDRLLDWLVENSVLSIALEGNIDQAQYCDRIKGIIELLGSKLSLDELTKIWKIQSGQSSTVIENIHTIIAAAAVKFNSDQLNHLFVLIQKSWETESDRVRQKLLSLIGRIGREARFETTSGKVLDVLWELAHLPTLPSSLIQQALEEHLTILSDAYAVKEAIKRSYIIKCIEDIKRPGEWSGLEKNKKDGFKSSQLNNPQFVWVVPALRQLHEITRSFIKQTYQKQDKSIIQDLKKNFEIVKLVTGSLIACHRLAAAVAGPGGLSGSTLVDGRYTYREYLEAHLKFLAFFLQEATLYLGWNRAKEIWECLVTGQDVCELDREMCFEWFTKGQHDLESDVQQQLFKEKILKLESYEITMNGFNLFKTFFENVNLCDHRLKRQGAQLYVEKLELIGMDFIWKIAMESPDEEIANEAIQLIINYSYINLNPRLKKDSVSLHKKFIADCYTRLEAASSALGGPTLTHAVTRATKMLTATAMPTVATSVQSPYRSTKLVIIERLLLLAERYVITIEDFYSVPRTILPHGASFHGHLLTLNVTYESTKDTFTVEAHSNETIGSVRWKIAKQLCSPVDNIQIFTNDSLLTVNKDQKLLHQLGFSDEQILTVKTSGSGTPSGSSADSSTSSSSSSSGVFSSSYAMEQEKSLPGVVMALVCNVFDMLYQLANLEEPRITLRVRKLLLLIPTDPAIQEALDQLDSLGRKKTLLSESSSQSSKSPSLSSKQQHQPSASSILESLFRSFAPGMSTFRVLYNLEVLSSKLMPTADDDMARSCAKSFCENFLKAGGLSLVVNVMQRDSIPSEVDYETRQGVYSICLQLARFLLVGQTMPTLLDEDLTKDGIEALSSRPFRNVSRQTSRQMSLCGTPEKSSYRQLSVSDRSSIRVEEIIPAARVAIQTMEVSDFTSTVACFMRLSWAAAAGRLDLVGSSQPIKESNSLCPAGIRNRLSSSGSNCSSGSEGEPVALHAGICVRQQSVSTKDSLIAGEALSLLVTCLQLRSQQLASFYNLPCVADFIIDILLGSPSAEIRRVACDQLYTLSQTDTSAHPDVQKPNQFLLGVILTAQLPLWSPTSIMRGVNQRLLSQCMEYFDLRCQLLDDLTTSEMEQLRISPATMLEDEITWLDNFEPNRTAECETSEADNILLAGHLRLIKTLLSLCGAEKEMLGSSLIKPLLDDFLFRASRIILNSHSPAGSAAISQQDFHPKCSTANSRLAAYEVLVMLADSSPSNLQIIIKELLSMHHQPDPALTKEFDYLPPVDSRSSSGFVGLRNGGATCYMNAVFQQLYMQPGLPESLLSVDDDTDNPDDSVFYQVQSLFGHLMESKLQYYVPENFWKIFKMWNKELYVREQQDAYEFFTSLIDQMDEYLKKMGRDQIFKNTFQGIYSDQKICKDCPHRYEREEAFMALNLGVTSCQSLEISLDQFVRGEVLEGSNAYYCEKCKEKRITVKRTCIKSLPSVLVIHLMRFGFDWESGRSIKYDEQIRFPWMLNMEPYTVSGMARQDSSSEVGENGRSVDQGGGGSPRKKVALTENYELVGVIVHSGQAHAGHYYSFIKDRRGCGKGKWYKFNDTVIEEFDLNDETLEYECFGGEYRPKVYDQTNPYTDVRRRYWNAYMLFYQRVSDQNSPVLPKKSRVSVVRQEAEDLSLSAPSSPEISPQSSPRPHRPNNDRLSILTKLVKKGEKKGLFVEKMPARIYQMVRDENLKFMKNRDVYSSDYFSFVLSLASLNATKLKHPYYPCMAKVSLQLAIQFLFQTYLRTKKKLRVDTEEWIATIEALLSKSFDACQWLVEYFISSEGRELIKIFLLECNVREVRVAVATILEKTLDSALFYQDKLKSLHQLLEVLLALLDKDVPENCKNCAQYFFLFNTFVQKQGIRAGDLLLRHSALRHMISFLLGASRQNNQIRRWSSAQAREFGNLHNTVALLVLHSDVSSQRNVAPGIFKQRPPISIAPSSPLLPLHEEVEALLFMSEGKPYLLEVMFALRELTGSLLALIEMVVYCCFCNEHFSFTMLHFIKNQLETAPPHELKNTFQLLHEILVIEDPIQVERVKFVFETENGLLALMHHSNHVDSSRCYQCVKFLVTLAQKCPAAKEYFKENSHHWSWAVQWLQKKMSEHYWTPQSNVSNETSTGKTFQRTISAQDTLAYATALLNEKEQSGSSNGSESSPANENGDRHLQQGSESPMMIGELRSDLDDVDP
Chain of USP10 (Q14694 whole entry): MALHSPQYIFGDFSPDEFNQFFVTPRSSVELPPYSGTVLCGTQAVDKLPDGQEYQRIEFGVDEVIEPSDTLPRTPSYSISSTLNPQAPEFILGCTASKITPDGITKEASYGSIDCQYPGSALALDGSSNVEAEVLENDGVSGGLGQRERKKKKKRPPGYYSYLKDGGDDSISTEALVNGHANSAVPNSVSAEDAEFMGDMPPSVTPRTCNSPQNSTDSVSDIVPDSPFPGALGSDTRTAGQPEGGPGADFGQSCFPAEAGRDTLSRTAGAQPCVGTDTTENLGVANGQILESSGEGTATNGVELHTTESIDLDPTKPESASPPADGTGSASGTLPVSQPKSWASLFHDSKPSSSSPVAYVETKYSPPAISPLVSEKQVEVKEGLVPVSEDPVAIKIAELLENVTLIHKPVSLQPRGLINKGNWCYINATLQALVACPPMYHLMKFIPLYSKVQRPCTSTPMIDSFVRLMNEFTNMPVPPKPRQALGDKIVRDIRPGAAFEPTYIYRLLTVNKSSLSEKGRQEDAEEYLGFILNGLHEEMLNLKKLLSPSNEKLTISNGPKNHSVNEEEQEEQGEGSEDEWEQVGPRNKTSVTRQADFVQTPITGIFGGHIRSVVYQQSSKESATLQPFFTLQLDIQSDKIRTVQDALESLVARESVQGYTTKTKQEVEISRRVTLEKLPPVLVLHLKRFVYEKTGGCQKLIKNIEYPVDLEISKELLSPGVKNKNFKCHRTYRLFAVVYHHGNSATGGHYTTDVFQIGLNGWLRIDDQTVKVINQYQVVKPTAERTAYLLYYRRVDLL
Chain of DUBs and other proteins in HEK293 cells (Homo sapiens, UniProt O00487) (O00487 whole entry): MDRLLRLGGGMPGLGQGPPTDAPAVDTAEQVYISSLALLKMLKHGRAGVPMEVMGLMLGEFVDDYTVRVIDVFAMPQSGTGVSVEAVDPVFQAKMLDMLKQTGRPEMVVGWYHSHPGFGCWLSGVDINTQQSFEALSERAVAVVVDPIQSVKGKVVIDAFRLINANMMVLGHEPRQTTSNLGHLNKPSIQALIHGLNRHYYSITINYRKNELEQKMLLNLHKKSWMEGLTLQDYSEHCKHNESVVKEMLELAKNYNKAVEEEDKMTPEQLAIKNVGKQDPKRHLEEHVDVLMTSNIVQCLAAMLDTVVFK

Question: Which results are given for `CC(=O)O/N=C1\C(=O)N(Cc2cc(Cl)ccc2Cl)c2ccc(Cl)cc21` [LDN-57444, reference compound]?
Answer: IC50 [1]: > 10 µM; IC50 [2]: > 10 µM

Question: For `N#CN1CCC[C@@H]1C(=O)N1CCc2c(-c3c[nH]c4ncccc34)cccc21` [Compound 3], which IC50 [1] is on record?
Answer: Its IC50 is over 10 µM.

Question: What about the “Log2 reporter intensity values: PSMD14” value [3, 6] of the same molecule?
Answer: The value was 1.063 and 1.033 and 1.055.

Question: And the “Log2 reporter intensity values: PSMD14” value [3, 7]?
Answer: Its value is 1.048 and 1.127 and 1.122.

Question: What about the “Log2 reporter intensity values” ([3]; 3_1 μM) of the same molecule?
Answer: The value was 0.06036 and 0.03045 and 0.0523.

Question: What about the “Log2 reporter intensity values” ([3]; 3_4 μM) of the same molecule?
Answer: Its value is 0.04582 and 0.1244 and 0.1197.

Question: And the “Log2 reporter intensity values” ([3]; 3 at 1 μM)?
Answer: Its value is 0.08818 and 0.04699 and 0.07719.

Question: And the “Log2 reporter intensity values” ([3]; 3 at 4 μM)?
Answer: The value was 0.06829 and 0.1725 and 0.1665.

Question: What about the “Log2 reporter intensity values: PSMD7” value [4, 6] of the same molecule?
Answer: Its value is 1.2 and 1.081 and 1.198.

Question: What about the “Log2 reporter intensity values: PSMD7” value [4, 7] of the same molecule?
Answer: Its value is 1.083 and 1.233 and 0.9957.

Question: What about the “Log2 reporter intensity values” ([4]; 3_1 μM) of the same molecule?
Answer: The value was 0.1973 and 0.07834 and 0.1956.

Question: And the “Log2 reporter intensity values” ([4]; 3_4 μM)?
Answer: Its value is 0.08024 and 0.2301 and -0.006858.

Question: And the “Log2 reporter intensity values” ([4]; 3 at 1 μM)?
Answer: Its value is 0.2629 and 0.1122 and 0.2608.

Question: What about the “Log2 reporter intensity values” ([4]; 3 at 4 μM) of the same molecule?
Answer: Its value is 0.1148 and 0.3017 and -0.006207.

Question: And the “Log2 reporter intensity values: USP24” value [5, 6]?
Answer: The value was 1.062 and 1.01 and 1.397.

Question: And the “Log2 reporter intensity values: USP24” value [5, 7]?
Answer: The value was 1.531 and 1.061 and 0.663.

Question: What about the “Log2 reporter intensity values” ([5]; 3_1 μM) of the same molecule?
Answer: The value was 0.05897 and 0.007121 and 0.3935.

Question: What about the “Log2 reporter intensity values” ([5]; 3_4 μM) of the same molecule?
Answer: Its value is 0.5273 and 0.05764 and -0.3403.

Question: And the “Log2 reporter intensity values” ([5]; 3 at 1 μM)?
Answer: The value was 0.08723 and 0.01505 and 0.4822.

Question: And the “Log2 reporter intensity values” ([5]; 3 at 4 μM)?
Answer: The value was 0.6141 and 0.08543 and -0.5928.

Question: What about the IC50 [2] of the same molecule?
Answer: Its IC50 is over 10 µM.

Question: Which results are given for `CC(=O)O/N=C1\C(=O)N(Cc2cc(Cl)ccc2Cl)c2ccc(Cl)cc21` [LDN]?
Answer: Log2 reporter intensity values: PSMD14 [3, 8]: 1.1 and 1.114 and 0.9966; Log2 reporter intensity values: PSMD14 [3, 9]: 0.9804 and 1.072 and 1.068; Log2 reporter intensity values ([3]; LDN at 5 μM): 0.1369 and 0.1555 and -0.004904; Log2 reporter intensity values ([3]; LDN at 25 μM): -0.02853 and 0.1005 and 0.09452; Log2 reporter intensity values ([3]; LDN_5 μM): 0.09685 and 0.1112 and -0.006053; Log2 reporter intensity values ([3]; LDN_25 μM): -0.02224 and 0.06945 and 0.06505; Log2 reporter intensity values: PSMD7 [4, 8]: 1.218 and 1.097 and 1.111; Log2 reporter intensity values: PSMD7 [4, 9]: 1.26 and 1.205 and 1.158; Log2 reporter intensity values ([4]; LDN at 5 μM): 0.2849 and 0.1342 and 0.1516; Log2 reporter intensity values ([4]; LDN at 25 μM): 0.3338 and 0.2689 and 0.2118; Log2 reporter intensity values ([4]; LDN_5 μM): 0.2157 and 0.09493 and 0.1083; Log2 reporter intensity values ([4]; LDN_25 μM): 0.2577 and 0.2023 and 0.1556; Log2 reporter intensity values: USP24 [5, 8]: 0.8375 and 1.105 and 1.062; Log2 reporter intensity values: USP24 [5, 9]: 1.15 and 1.015 and 1.054; Log2 reporter intensity values ([5]; LDN at 5 μM): -0.2559 and 0.1441 and 0.08741; Log2 reporter intensity values ([5]; LDN at 25 μM): 0.2018 and 0.02211 and 0.07566; Log2 reporter intensity values ([5]; LDN_5 μM): -0.1659 and 0.1016 and 0.0591; Log2 reporter intensity values ([5]; LDN_25 μM): 0.1468 and 0.01208 and 0.05048

Question: What does the source list for `N#CN1CCC[C@H]1C(=O)N1CCc2c(-c3c[nH]c4ncccc34)cccc21` [Compound 1]?
Answer: IC50 [1]: > 10 µM; Log2 reporter intensity values: PSMD14 [3, 10]: 1.038 and 0.9518 and 1.018; Log2 reporter intensity values: PSMD14 [3, 11]: 1.04 and 0.9939 and 0.9281; Log2 reporter intensity values ([3]; 1_1 μM): 0.0358 and -0.05091 and 0.01579; Log2 reporter intensity values ([3]; 1_4 μM): 0.03701 and -0.008736 and -0.0746; Log2 reporter intensity values ([3]; 1 at 1 μM): 0.05445 and -0.07134 and 0.02638; Log2 reporter intensity values ([3]; 1 at 4 μM): 0.05612 and -0.008793 and -0.1077; Log2 reporter intensity values: PSMD7 [4, 10]: 1.13 and 1.005 and 1.053; Log2 reporter intensity values: PSMD7 [4, 11]: 1.07 and 1.047 and 1.231; Log2 reporter intensity values ([4]; 1_1 μM): 0.1278 and 0.002507 and 0.05011; Log2 reporter intensity values ([4]; 1_4 μM): 0.06753 and 0.04399 and 0.2288; Log2 reporter intensity values ([4]; 1 at 1 μM): 0.1768 and 0.007299 and 0.07406; Log2 reporter intensity values ([4]; 1 at 4 μM): 0.09774 and 0.06565 and 0.3003; Log2 reporter intensity values: USP24 [5, 10]: 1.001 and 1.09 and 1.248; Log2 reporter intensity values: USP24 [5, 11]: 0.9741 and 0.9874 and 0.9877; Log2 reporter intensity values ([5]; 1_1 μM): -0.002058 and 0.08693 and 0.2444; Log2 reporter intensity values ([5]; 1_4 μM): -0.02929 and -0.01601 and -0.01571; Log2 reporter intensity values ([5]; 1 at 1 μM): 0.00188 and 0.1247 and 0.3193; Log2 reporter intensity values ([5]; 1 at 4 μM): -0.0379 and -0.01836 and -0.01793; IC50 [2]: > 10 µM

Question: What does the source list for `C#Cc1cnc2[nH]cc(-c3cccc4c3CCN4C(=O)[C@@H]3CCCN3C#N)c2c1` [Compound 2]?
Answer: Log2 reporter intensity values: PSMD14 ([3]; 20 nM ABP 2 alone): 0.9494 and 1.033 and 1.015; Log2 reporter intensity values ([3]; 20 nM ABP 2): -0.07484 and 0.0464 and 0.02103 and -0.05321 and 0.03002 and 0.01203; Log2 reporter intensity values: PSMD7 ([4]; 20 nM ABP 2 alone): 0.8915; Log2 reporter intensity values ([4]; 20 nM ABP 2): 0.1122 and -0.1657 and 0.02 and 0.07832; Log2 reporter intensity values: USP24 ([5]; 20 nM ABP 2 alone): 1.118 and 1.126 and 1.127; Log2 reporter intensity values ([5]; 20 nM ABP 2): 0.1605 and 0.1713 and 0.1729 and 0.1143 and 0.1227 and 0.1239; IC50 [2]: > 10 µM

— article PMC7366380, “Discovery of a Potent and Selective Covalent Inhibitor and Activity-Based Probe for the Deubiquitylating Enzyme UCHL1, with Antifibrotic Activity” (Journal of the American Chemical Society, 2020)
